Assay results published in patent US11264117B2, “Neoantigen identification using hotspots” (Gritstone bio, Inc., priority 2017, dated 2022).
Ends that are not written are not given here.

Tested on: IFNγ-producing T-cells
Experiment: IFN-gamma ELISpot on in vitro expanded (IVS) NSCLC patient PBMCs with patient-specific neoantigen peptide pools or individual peptides
Assay type: cell-based, human
Conditions: NSCLC patient PBMCs after IVS culture
Experimental: To do so, archival FFPE tumor biopsies and 5-30 ml of peripheral blood were analyzed from 9 patients with metastatic NSCLC undergoing anti-PD(L)1 therapy (Supplementary Table 2: Patient demographics and treatment information for N=9 patients studied in FIGS. 17A-C. Key fields include tumor stage and subtype, anti-PD1 therapy received, and summary of NGS results.). […] The full MS model was applied to prioritize 20 neoepitopes per patient for testing against pre-existing anti-tumor T-cell responses. To focus the analysis on likely CD8 responses, the prioritized peptides were synthesized as 8-11mer minimal epitopes (Methods), and then peripheral blood mononuclear cells (PBMCs) were cultured with the synthesized peptides in short in vitro stimulation (IVS) cultures to expand neoantigen-reactive T-cells (Supplementary Table 3). After two weeks the presence of antigen-specific T-cells was assessed using IFN-gamma ELISpot against the prioritized neoepitopes. In seven patients for whom sufficient PBMCs were available, separate experiments were also performed to fully or partially deconvolve the specific antigens recognized. The results are depicted in FIGS. 17A-C and 18A-21.
FIG. 17A depicts detection of T-cell responses to patient-specific neoantigen peptide pools for nine patients. […]

GTKKDVDVLK
T-cell recognition of individual peptide: recognized by CD8 T-cells
